Values quoted from earlier work, collected in patent US9700504B2, “Composition and method for an intradermal hair growth solution” (priority 2012, dated 2017).

System: human hair follicles
Conditions: ex vivo human hair follicles and cultured dermal papilla cells

L-alanyl-L-histidyl-L-lysine-Cu^2+ [AHK-Cu]
effect on human hair growth: promotes the growth of human hair follicles
